Literature values, collected in patent US20190365933A1, “SOLVENT-FREE GADOLINIUM CONTRAST AGENTS” (Inventure, LLC, priority 2016, published 2019).
Read-outs that look alike come from different tables or passages of the source.

SMILES	Conditional stability constant at pH 7.4 (log Keff) (complex of gadolinium with the named ligand, log value)	Thermodynamic stability constants pH 14 (log KGdL) (complex of gadolinium with the named ligand, pH 14, ligand entirely deprotonated, log value)	Conditional stability constant at pH 7.4 (log Keff)	Thermodynamic stability constants pH 14 (log KGdL) (pH 14)
O=C(O)CN1CCN(CC(=O)O)CCN(CC(=O)O)CCN(CC(=O)O)CC1 [DOTA, 1,4,7,10-tetraazacyclododecane-1,4,7,10-tetraacetic acid]	17.2	24.7	–	–
O=C(O)CNC(=O)CN1CCN(CC(=O)NCC(=O)O)CCN(CC(=O)NCC(=O)O)CCN(CC(=O)NCC(=O)O)CC1 [DOTA-(gly)4]	–	–	12.7	14.54
